Consider four compounds from patent US5773438A, “Synthetic matrix metalloprotease inhibitors and use thereof” (Glycomed Incorporated, priority 1994, dated 1998).

The structures appear in SMILES notation. Bounds are passed on as bounds.

In one assay the test system is MMPs. The settings on record: cited from earlier work.
The test system of assay [1] is PdiBu-Induced Epidermal Hyperplasia. Put plainly: PdiBu-induced epidermal hyperplasia mouse model (psoriasis). It is filed as in vivo, hairless mice.
Description: The phorbol ester, PdiBu (20 nmol in 20 μl if acetone) was applied to both ears of hairless mice (h/h) (approximately 1 cm^2 each). The test compounds (in total volume of 20 μl) were then applied to the right ear immediately (15 to 30 min) following PdiBu. The left ear of each animal received an equivalent amount (20 μl) of vehicle. Test compounds (and vehicle) were reapplied at 6 and 18 hours following PdiBu. Treatment times were staggered to allow exact time intervals to be obtained. At 30 hours after PdiBu, animals were anesthetized, and ear thickness values were obtained using a microcaliper. The weights of punch biopsies (6mm) were then obtained. Histology was performed on selected samples taken at 30 hours.
Left ear in each animal served as vehicle-treated controls (PdiBu+ETOH). Thus, the controls for this series include: 1) Untreated controls; 2) PdiBu plus vehicle alone (included for each mouse tested); 3) PdiBu plus AHA; 4) PdiBu plus Lidex® as a positive control.
The next assay concerns the target Stromelysin (Homo sapiens, UniProt P08254). Put plainly: inhibition of stromelysin (Table 2). It counts as biochemical. The settings on record: read-out: Strom inhibitory activity.
In assay [2] the target is Recombinant neutrophil collagenase (Homo sapiens, UniProt P22894). Put plainly: inhibition of recombinant neutrophil collagenase (Table 2). It is filed as biochemical. The note with it: read-out: NC inhibitory activity.
Description: (§1) Specifically, assay of inhibition activity can be conducted as follows. […] Assays for inhibition of human stromelysin are conducted as described by Teahan, J., et al., Biochemistry (1989) 20:8497-8501.
(§2) Assay of inhibition activity can be conducted using a fluorogenic substrate developed by Knight et al., FEBS Letters (1992) 296:263. This method uses a fluorometer to determine the rate of substrate hydrolysis in a 96 well plate format. Reaction rates are determined at several substrate concentrations, and multiple inhibitor levels. The data are analyzed by Lineweaver-Burk, Dixon and Henderson plot analyses (Enzyme Kinetics (1975) Irwin Segal (John Wiley & Sons, Inc., publishers), and as described by Henderson, Biochem J. (1972) 127:321). The substrate levels range from 10-30μM. […] Inhibitors may be assayed against purified 72 kD gelatinase, 92 kD gelatinase, neutrophil collagenase, stromelysin or other proteases as appropriate. The enzymes are activated at 37° C. with APMA (4-aminophenylmercuric acetate), and the assays are carried out at room temperature.
The target in assay [3] is T1, Human gingival fibrblast collagenase (Homo sapiens, UniProt P03956).
T1 construct: endogenous in cells; host or cells: human gingival fibroblasts
T1 sequence (P03956 100-469): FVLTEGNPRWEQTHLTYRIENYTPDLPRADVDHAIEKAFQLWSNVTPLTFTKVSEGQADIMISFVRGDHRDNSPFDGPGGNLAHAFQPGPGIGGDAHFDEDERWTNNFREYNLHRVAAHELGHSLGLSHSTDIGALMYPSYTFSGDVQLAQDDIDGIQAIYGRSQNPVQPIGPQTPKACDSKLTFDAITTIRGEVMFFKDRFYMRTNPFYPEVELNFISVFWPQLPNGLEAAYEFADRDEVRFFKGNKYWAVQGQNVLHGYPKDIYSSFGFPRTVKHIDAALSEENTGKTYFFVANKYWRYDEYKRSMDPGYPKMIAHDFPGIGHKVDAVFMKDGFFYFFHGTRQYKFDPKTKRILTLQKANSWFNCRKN
Put plainly: inhibition of human gingival fibroblast collagenase (Table 2). It is filed as biochemical. The settings on record: read-out: HGFC inhibitory activity.
Description: as §1, §2

The next assay has as its target 92kD gelatinase (Homo sapiens, UniProt P14780). Put plainly: inhibition of 92kD gelatinase (Table 2). It is filed as biochemical. The note with it: read-out: 92kD G inhibitory activity.
Assay [4] has as its target T2, Natural human 72kD gelatinase (Homo sapiens, UniProt P08253).
T2 sequence (P08253 110-660): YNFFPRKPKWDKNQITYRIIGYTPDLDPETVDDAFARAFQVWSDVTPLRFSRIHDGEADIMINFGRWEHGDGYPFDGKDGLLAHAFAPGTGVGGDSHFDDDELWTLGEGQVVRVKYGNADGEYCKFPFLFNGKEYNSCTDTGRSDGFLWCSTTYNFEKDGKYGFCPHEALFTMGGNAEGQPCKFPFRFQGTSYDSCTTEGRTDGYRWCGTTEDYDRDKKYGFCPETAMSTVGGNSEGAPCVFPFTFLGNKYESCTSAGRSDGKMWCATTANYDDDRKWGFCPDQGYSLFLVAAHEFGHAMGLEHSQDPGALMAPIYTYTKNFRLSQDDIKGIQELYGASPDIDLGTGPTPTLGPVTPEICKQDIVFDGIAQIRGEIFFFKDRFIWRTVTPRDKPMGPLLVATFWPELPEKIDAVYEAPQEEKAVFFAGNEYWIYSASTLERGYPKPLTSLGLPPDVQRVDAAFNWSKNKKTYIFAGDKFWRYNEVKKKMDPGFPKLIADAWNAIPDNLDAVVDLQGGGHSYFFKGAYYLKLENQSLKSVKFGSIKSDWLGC
Put plainly: inhibition of 72kD gelatinase (Table 2). It is filed as biochemical. The settings on record: read-out: 72kD G inhibitory activity.
Description: as §1, §2

A further assay concerns angiogenesis. The settings on record: cited from earlier work.

Chain of Recombinant neutrophil collagenase (P22894 101-467): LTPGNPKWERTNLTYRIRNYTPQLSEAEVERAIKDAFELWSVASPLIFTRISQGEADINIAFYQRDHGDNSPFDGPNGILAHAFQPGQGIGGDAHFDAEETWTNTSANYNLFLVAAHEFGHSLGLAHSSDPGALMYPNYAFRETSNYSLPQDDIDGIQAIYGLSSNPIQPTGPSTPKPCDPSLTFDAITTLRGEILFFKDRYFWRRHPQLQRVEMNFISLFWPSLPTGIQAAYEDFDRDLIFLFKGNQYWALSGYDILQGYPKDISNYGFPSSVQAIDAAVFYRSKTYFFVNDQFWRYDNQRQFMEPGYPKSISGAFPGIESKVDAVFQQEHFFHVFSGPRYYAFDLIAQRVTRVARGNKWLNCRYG
Chain of 92kD gelatinase (P14780 107-707 limits assumed): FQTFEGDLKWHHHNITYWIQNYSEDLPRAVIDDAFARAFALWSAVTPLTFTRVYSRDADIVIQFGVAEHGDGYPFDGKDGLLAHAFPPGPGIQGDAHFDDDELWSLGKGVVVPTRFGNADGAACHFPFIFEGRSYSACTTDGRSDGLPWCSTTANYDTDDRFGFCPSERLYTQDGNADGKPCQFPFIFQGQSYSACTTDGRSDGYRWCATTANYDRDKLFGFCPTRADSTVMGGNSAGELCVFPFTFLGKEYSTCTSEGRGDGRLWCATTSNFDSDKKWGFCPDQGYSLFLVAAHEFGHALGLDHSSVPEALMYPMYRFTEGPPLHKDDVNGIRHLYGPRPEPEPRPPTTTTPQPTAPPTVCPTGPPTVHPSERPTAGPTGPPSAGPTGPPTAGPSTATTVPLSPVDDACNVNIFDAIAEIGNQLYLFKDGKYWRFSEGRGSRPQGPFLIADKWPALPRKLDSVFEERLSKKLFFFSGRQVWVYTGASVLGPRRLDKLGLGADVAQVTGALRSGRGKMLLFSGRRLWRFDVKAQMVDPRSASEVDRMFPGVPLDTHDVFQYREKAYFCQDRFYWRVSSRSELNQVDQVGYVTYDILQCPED
Chain of Stromelysin (P08254 100-477): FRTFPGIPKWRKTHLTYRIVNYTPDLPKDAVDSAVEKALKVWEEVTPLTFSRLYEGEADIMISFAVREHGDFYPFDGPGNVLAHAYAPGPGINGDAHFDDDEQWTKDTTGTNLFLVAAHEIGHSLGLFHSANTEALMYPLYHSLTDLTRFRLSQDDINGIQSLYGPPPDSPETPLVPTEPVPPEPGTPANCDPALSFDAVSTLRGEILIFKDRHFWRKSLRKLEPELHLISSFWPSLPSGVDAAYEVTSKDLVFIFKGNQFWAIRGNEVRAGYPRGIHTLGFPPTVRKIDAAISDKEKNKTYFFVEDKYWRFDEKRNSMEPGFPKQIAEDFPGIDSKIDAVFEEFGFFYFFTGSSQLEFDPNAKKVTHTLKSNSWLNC

`CC(=O)NO` [AHA, acetohydroxamic acid, reference compound]: the “inhibitory effects on MMPs” value with MMPs is “devoid of inhibitory effects on MMPs”. Besides, the “ear thickness (AHA control)” value in assay [1] (PdiBu + AHA, 0.53 μmol/ear at 0.25, 6.0 and 24 hours) is listed as 36.8 ± 1.3 inch × 10^-3. Moreover, in assay [1] (PdiBu + AHA, 0.53 μmol/ear at 0.25, 6.0 and 24 hours, in mg), the “biopsy weight (AHA control)” value amounted to 24.1 ± 1.2. Besides, the “ear thickness (positive control section)” value in assay [1] (Positive Control: Lidex (fluocinonide) section, single experiment) worked out at 15.8 ± 0.4. The “biopsy weight (positive control section)” value in assay [1] (Positive Control: Lidex (fluocinonide) section, single experiment, in mg) is 9.7 ± 0.3. For the same compound, in assay [1] (topical), the “effect on PdiBu-induced ear thickness” value is on record as “did not alter” and the “effect on PdiBu-induced increase in punch biopsy weight” value is on record as “did not alter”.
On to `C[C@H](NC(=O)[C@H](Cc1c[nH]c2ccccc12)NC(=O)[C@@H](CC(=O)O)NC(=O)OC(C)(C)C)c1ccccc1` [Compound 81], for which the Ki at Stromelysin was greater than 10 µM; in assay [2], greater than 10 µM; in assay [3] it was 0.5 µM; on 92kD gelatinase, greater than 10 µM; in assay [4] it was greater than 10 µM.
With `C[C@H](NC(=O)[C@H](Cc1c[nH]c2ccccc12)NC(=O)[C@@H](CC(=O)NO)NC(=O)OC(C)(C)C)c1ccccc1` [Compound 82, Boc-D-beta-hydroxamidoaspartyl-1 -tryptophan-(S)-methylbenzylamide], the Ki on Stromelysin is greater than 10 µM; in assay [2] it was 3.26 µM; in assay [3] it was 0.08 µM; on 92kD gelatinase, 3.58 µM; in assay [4] it was 9.26 µM.
Turning to `CCCCC[C@H](CC(=O)NO)C(=O)N[C@H](C(=O)N1CCC[C@H]1CO)C(C)C` [actinonin], the “activity as an angiogenesis inhibitor” value in the assay on angiogenesis is “angiogenesis inhibitor”.
